Experimental data reported in patent US9833497B2, “Human originated EGF domain proteins and use of the same” (CHENGDU SOURCEBIO LIMITED-LIABILITY COMPANY, priority 2013, dated 2017).

Legend:
Format in all cases: cell-based
Serratia marcescens = experiment: MIC against Gram-negative bacteria: Serratia marcescens
Method in brief: (§1)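 MIC = lowest concentration of recombinant protein showing no growth. Test proteins: purified human-derived EGF domain proteins, two-fold dilution series, three wells per concentration; inoculum 5×10^5 CFU/mL in LB; incubation 37° C with shaking at 175 rpm.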

Enterobacter cloacae = experiment: MIC against Gram-negative bacteria: Enterobacter cloacae
Method in brief: as §1

E. coli BL21 = experiment: MIC against Gram-negative bacteria: E. coli BL21
Method in brief: as §1

Proteus mirabilis = experiment: MIC against Gram-negative bacteria: Proteus mirabilis
Method in brief: as §1

Moraxella catarrhalis = experiment: MIC against Gram-negative bacteria: Moraxella catarrhalis
Method in brief: as §1

Proteus vulgaris = experiment: MIC against Gram-negative bacteria: Proteus vulgaris
Method in brief: as §1

Pseudomonas aeruginosa = experiment: MIC against Gram-negative bacteria: Pseudomonas aeruginosa
Method in brief: as §1

Citrobacter diversus = experiment: MIC against Gram-negative bacteria: Citrobacter diversus
Method in brief: as §1

E. coli DH5α = experiment: Antibacterial activity: MIC and growth curve against E. coli DH5α in 96-well plate; conditions: minimal inhibitory concentration against E. coli DH5α; 96-well plate, 5×10^5 CFU/mL, 37° C., judged after 8 h
Method in brief: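 Log-phase bacteria (OD600 ~0.5) resuspended in LB at 5×10^5 CFU/mL, exposed to recombinant protein at 50, 25, 12.5 μg/mL final in triplicate, 37 °C shaking at 175 rpm. OD600 read every 30 min; MIC is lowest concentration showing no growth.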

Aeromonas hydrophila = experiment: MIC against Gram-negative bacteria: Aeromonas hydrophila
Method in brief: as §1

Klebsiella pneumonia = experiment: MIC against Gram-negative bacteria: Klebsiella pneumonia
Method in brief: as §1

[1] = 96-well plate, 5×10^5 CFU/mL, 37° C., 10 h
[2] = 10 h cultivation at 37° C., 5×10^5 CFU/mL, two-fold serial dilution

Substance: PRT955 (DVDECLLQPNACQNGGTCANRNGGYGCVCVNGWSGDDCS; listed as Homo sapiens)
- MIC (Serratia marcescens; S. marcescens, 10 h cultivation at 37° C.): 12.5 µg/mL
- MIC (Enterobacter cloacae; E. cloacae, 10 h cultivation at 37° C.): 25 µg/mL
- MIC (E. coli BL21; E. coli BL21, 10 h cultivation at 37° C.): 12.5 µg/mL
- MIC (Proteus mirabilis; P. mirabilis, 10 h cultivation at 37° C.): 12.5 µg/mL
- MIC (Moraxella catarrhalis; M. catarrhalis, 10 h cultivation at 37° C.): 12.5 µg/mL
- MIC (Proteus vulgaris; P. vulgaris, 10 h cultivation at 37° C.): 25 µg/mL
- MIC (Pseudomonas aeruginosa; P. aeruginosa, 10 h cultivation at 37° C.): 25 µg/mL
- MIC (Citrobacter diversus; C. diversus, 10 h cultivation at 37° C.): 25 µg/mL
- MIC (E. coli DH5α): 50 µg/mL
- MIC (Aeromonas hydrophila; A. hydrophila, 10 h cultivation at 37° C.): 12.5 µg/mL
- MIC (Klebsiella pneumonia; K. pneumonia, 10 h cultivation at 37° C.): 12.5 µg/mL

Substance: PRT475 (VQNTCKDNPCGRGQCLITQSPPYYRCVCKHPYTGPSCS; listed as Homo sapiens)
- MIC against S. marcescens (Serratia marcescens; [1]): 50 µg/mL
- MIC against E. cloacae (Enterobacter cloacae; [1]): 25 µg/mL
- MIC against E. coli BL21 (E. coli BL21; [1]): 12.5 µg/mL
- MIC against P. mirabilis (Proteus mirabilis; [1]): 50 µg/mL
- MIC against M. catarrhalis (Moraxella catarrhalis; [1]): 12.5 µg/mL
- MIC against P. vulgaris (Proteus vulgaris; [1]): 12.5 µg/mL
- MIC against P. aeruginosa (Pseudomonas aeruginosa; [1]): 50 µg/mL
- MIC against C. diversus (Citrobacter diversus; [1]): 25 µg/mL
- MIC (E. coli DH5α): 50 µg/mL
- MIC against A. hydrophila (Aeromonas hydrophila; [1]): 25 µg/mL
- MIC against K. pneumonia (Klebsiella pneumonia; [1]): 25 µg/mL

Substance: PRT604 (CPCNRFAELCDPETGSCFNCGGFTTGRNCERCIDGYYGNPSSGQPCRP; listed as Homo sapiens)
- MIC S. marcescens (Serratia marcescens; [1]): 25 µg/mL
- MIC E. cloacae (Enterobacter cloacae; [1]): 25 µg/mL
- MIC E. coli BL21 (E. coli BL21; [1]): 12.5 µg/mL
- MIC P. mirabilis (Proteus mirabilis; [1]): 25 µg/mL
- MIC M. catarrhalis (Moraxella catarrhalis; [1]): 12.5 µg/mL
- MIC P. vulgaris (Proteus vulgaris; [1]): 12.5 µg/mL
- MIC P. aeruginosa (Pseudomonas aeruginosa; [1]): 25 µg/mL
- MIC C. diversus (Citrobacter diversus; [1]): 25 µg/mL
- MIC (E. coli DH5α): 50 µg/mL
- MIC A. hydrophila (Aeromonas hydrophila; [1]): 12.5 µg/mL
- MIC K. pneumonia (Klebsiella pneumonia; [1]): 50 µg/mL

Substance: PRT619 (CNCQGGGACDPDTGDCYSGDENPDIECADCPIGFYNDPHDPRSCKP; listed as Homo sapiens)
- MIC S. marcescens (Serratia marcescens; [1]): 50 µg/mL
- MIC E. cloacae (Enterobacter cloacae; [1]): 12.5 µg/mL
- MIC E. coli BL21 (E. coli BL21; [1]): 25 µg/mL
- MIC P. mirabilis (Proteus mirabilis; [1]): 12.5 µg/mL
- MIC M. catarrhalis (Moraxella catarrhalis; [1]): 25 µg/mL
- MIC P. vulgaris (Proteus vulgaris; [1]): 25 µg/mL
- MIC P. aeruginosa (Pseudomonas aeruginosa; [1]): 50 µg/mL
- MIC C. diversus (Citrobacter diversus; [1]): 50 µg/mL
- MIC (E. coli DH5α): 12.5 µg/mL
- MIC A. hydrophila (Aeromonas hydrophila; [1]): 25 µg/mL
- MIC K. pneumonia (Klebsiella pneumonia; [1]): 25 µg/mL

Substance: PRT176 (APLVCRAGCSPEHGFCEQPGECRCLEGWTGPLCT; listed as Homo sapiens)
- MIC (μg/mL) S. marcescens (Serratia marcescens; S. marcescens, 10 h cultivation at 37° C., 5×10^5 CFU/mL): 25 µg/mL
- MIC (μg/mL) E. cloacae (Enterobacter cloacae; E. cloacae, 10 h cultivation at 37° C., 5×10^5 CFU/mL): 25 µg/mL
- MIC (μg/mL) E. coli BL21 (E. coli BL21; E. coli BL21, 10 h cultivation at 37° C., 5×10^5 CFU/mL): 12.5 µg/mL
- MIC (μg/mL) P. mirabilis (Proteus mirabilis; P. mirabilis, 10 h cultivation at 37° C., 5×10^5 CFU/mL): 25 µg/mL
- MIC (μg/mL) M. catarrhalis (Moraxella catarrhalis; M. catarrhalis, 10 h cultivation at 37° C., 5×10^5 CFU/mL): 50 µg/mL
- MIC (μg/mL) P. vulgaris (Proteus vulgaris; P. vulgaris, 10 h cultivation at 37° C., 5×10^5 CFU/mL): 12.5 µg/mL
- MIC (μg/mL) P. aeruginosa (Pseudomonas aeruginosa; P. aeruginosa, 10 h cultivation at 37° C., 5×10^5 CFU/mL): 25 µg/mL
- MIC (μg/mL) C. diversus (Citrobacter diversus; C. diversus, 10 h cultivation at 37° C., 5×10^5 CFU/mL): 25 µg/mL
- MIC (E. coli DH5α): 25 µg/mL
- MIC (μg/mL) A. hydrophila (Aeromonas hydrophila; A. hydrophila, 10 h cultivation at 37° C., 5×10^5 CFU/mL): 12.5 µg/mL
- MIC (μg/mL) K. pneumonia (Klebsiella pneumonia; K. pneumonia, 10 h cultivation at 37° C., 5×10^5 CFU/mL): 12.5 µg/mL

Substance: PRT1112 (GAPVCAPSPCLHDGACRDLFDAFACACGPGWEGPRCE; listed as Homo sapiens)
- MIC S. marcescens (Serratia marcescens; [2]): 25 µg/mL
- MIC E. cloacae (Enterobacter cloacae; [2]): 50 µg/mL
- MIC E. coli BL21 (E. coli BL21; [2]): 25 µg/mL
- MIC P. mirabilis (Proteus mirabilis; [2]): 25 µg/mL
- MIC M. catarrhalis (Moraxella catarrhalis; [2]): 12.5 µg/mL
- MIC P. vulgaris (Proteus vulgaris; [2]): 12.5 µg/mL
- MIC P. aeruginosa (Pseudomonas aeruginosa; [2]): 12.5 µg/mL
- MIC C. diversus (Citrobacter diversus; [2]): 25 µg/mL
- MIC (E. coli DH5α): 50 µg/mL
- MIC A. hydrophila (Aeromonas hydrophila; [2]): 12.5 µg/mL
- MIC K. pneumonia (Klebsiella pneumonia; [2]): 25 µg/mL
